Laboratory results as given in ChEMBL document CHEMBL4177539, “Discovery of N-((3R,4R)-4-Fluoro-1-(6-((3-methoxy-1-methyl-1H-pyrazol-4-yl)amino)-9-methyl-9H-purin-2-yl)pyrrolidine-3-yl)acrylamide (PF-06747775) through Structure-Based Drug Design: A High Affinity Irreversible Inhibitor Targeting Oncogenic EGFR Mutants with Selectivity over Wild-Type EGFR” (J Med Chem, 2017).

Columns and labels:
[1] = in vitro; settings: human, liver microsomes
[2] = physchem; settings: octanol/water
[3] = in vitro; settings: dog, MDCK

`C=CC(=O)N[C@@H]1CN(c2nc(Nc3cn(C)nc3CC)c3ncn(C(C)C)c3n2)C[C@H]1F` gave a microsomal CLint at […], 1 µM [1] of 81 µL/min/mg and a logD [2] of 3.5.
Compound `CC(C)C(CO)Nc1nc(Nc2ccc(N3CCNCC3)cc2)c2ncn(C(C)C)c2n1` (racemic) has a Papp [3] of 1.9 ×10⁻⁶ cm/s.
